In US20210253572A1, “IMIDAZO[1,2-B]PYRIDAZINES AS TRK INHIBITORS” (BenevolentAl Bio Limited, priority 2018, published 2021):

Legend:
Type in all cases: biochemical
TrkA = target: T1, TrkA (Homo sapiens, UniProt P04629); assay: HTRF KinEASE kinase assay, recombinant Human TRK enzyme, TrkA (NTRK1); details: NTRK1 4 nM, read-out: TrkA Enz
T1 construct: purchased Invitrogen
Procedure: (§1) A suitable assay for determining the Trk inhibition activity of a compound is detailed herein below.
(§2) To determine the IC50 of small molecule compounds for the Human TRK receptors, HTRF® KinEASE™ kinase kits from Cisbio were used. Assays were carried out in low volume, black 384-well plates.
(§3) Recombinant Human TRK enzymes (Invitrogen) were incubated in the presence or absence of the compound (11-point dose response with FAC as 10 μM) for 30 minutes at 23° C. Kinase reaction was started by addition of ATP to a mixture containing the enzyme (NTRK1-4 nM, NTRK2-1 nM, NTRK3-10 nM) and substrate (1 μM). Kinase reaction was allowed to carry on for 10 to 45 minutes at 23° C. after which it was stopped by addition of the detection mix (supplied by vendor) containing EDTA, TK-Ab-labelled with Eu^3+-cryptate (1:200 dilutions) and Streptavidin-XL665 (250 nM). Assay plates were incubated in this detection mix for 60 minutes at 23° C. The resulting TR-FRET signal, calculated as the fluorescence ratio at 665/620 nm, was read on an Envision and was proportional to the level of phosphorylation of the peptide in the presence or absence of the compound. The uniformity of the plates were assured with Z′ value [1−{3*(SDHPE+SDZPE)/(ZPE−HPE)}]. The percent (%) effect i.e. Inhibition of compound was calculated in comparison to the signal in the positive (HPE) and negative control (ZPE) wells within each assay plate. The endpoint value % Inhibition for the Standard compound was evaluated in each experiment as a quality control measure. IC50 was determined by plotting compound inhibition at respective dose in Graphpad prism5 using four parameter logistic curve fit.

TrkB = target: T2, TrkB (Homo sapiens, UniProt Q16620); assay: HTRF KinEASE kinase assay, recombinant Human TRK enzyme, TrkB (NTRK2); details: NTRK2 1 nM, read-out: TrkB Enz
T2 construct: purchased Invitrogen
T2 sequence (Q16620 32-822): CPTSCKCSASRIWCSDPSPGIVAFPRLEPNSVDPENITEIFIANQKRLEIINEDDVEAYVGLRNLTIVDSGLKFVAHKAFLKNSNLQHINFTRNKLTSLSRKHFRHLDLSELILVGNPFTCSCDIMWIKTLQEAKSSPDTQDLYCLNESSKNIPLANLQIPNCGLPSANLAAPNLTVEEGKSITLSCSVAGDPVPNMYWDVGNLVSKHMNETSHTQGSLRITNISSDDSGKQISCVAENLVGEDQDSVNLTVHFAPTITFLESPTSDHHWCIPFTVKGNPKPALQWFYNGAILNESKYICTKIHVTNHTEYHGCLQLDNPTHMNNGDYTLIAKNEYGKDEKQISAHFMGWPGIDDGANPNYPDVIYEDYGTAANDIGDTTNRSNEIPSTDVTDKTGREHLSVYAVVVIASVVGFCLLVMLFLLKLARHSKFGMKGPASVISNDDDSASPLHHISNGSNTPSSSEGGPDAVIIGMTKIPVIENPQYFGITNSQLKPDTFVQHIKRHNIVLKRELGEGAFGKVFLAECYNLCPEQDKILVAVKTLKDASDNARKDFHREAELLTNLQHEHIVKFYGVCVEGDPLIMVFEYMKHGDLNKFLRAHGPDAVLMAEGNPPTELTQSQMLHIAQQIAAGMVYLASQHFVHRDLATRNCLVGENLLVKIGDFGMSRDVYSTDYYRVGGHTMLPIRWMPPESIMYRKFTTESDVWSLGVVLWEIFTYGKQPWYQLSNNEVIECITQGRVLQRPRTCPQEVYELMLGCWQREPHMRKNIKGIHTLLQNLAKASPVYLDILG
Procedure: as §1, §2, §3

TrkC = target: T3, TrkC (Homo sapiens, UniProt Q16288); assay: HTRF KinEASE kinase assay, recombinant Human TRK enzyme, TrkC (NTRK3); details: NTRK3 10 nM, read-out: TrkC Enz
T3 construct: purchased Invitrogen
T3 sequence (Q16288 32-839): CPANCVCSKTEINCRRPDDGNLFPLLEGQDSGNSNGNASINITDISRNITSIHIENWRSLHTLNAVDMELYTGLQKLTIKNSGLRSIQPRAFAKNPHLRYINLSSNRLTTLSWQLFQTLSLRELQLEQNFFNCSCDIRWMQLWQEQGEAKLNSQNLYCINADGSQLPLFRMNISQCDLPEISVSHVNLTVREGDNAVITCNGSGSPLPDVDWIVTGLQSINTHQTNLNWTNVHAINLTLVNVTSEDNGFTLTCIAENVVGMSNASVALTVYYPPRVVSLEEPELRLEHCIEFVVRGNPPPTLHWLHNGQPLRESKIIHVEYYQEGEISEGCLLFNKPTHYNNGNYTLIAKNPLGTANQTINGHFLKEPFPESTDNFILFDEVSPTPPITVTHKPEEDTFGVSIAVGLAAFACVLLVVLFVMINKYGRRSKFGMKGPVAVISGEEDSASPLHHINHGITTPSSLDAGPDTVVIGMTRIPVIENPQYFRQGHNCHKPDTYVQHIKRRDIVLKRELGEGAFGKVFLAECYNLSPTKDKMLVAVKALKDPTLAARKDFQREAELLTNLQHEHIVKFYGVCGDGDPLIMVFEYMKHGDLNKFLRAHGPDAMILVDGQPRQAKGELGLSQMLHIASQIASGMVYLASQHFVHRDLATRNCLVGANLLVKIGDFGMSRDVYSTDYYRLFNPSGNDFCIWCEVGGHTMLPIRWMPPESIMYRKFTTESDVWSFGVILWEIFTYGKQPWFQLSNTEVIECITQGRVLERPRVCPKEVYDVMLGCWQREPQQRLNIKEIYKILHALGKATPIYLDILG
Procedure: as §1, §2, §3

T1 sequence (P04629 33-796): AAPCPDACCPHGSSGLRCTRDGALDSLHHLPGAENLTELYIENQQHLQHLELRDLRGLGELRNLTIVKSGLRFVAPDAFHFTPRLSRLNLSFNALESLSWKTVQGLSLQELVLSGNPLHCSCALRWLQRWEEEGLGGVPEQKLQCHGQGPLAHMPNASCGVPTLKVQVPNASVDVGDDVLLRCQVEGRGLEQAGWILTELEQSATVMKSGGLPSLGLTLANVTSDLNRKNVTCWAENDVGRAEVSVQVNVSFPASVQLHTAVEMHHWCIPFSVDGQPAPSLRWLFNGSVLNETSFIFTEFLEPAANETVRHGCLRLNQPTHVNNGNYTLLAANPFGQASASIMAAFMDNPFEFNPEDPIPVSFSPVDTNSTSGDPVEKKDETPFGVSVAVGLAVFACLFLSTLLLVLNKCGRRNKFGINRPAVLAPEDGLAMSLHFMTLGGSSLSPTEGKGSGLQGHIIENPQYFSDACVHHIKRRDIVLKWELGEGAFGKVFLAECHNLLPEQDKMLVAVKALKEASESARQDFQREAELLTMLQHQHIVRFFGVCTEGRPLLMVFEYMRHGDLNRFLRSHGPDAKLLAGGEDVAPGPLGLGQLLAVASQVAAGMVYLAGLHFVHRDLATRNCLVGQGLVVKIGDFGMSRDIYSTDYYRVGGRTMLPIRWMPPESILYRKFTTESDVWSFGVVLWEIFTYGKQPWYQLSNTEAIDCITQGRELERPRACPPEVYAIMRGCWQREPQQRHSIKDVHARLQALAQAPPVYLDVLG

SMILES	IC50 (TrkA) [nM]	IC50 (TrkB) [nM]	IC50 (TrkC) [nM]
CSc1cc(F)cc([C@H]2C[C@H](F)CN2c2ccc3ncc(C(=O)NC4CN(Cc5cccc(O)c5)C4)n3n2)c1 [Example 20, 6-[(2R,4S)-4-fluoro-2-[3-fluoro-5-(methylsulfanyl)phenyl]pyrrolidin-1-yl]-N-{1-[(3-hydroxyphenyl)methyl]azetidin-3-yl}imidazo[1,2-b]pyridazine-3-carboxamide]	2.69	3.76	3.72
CSc1ccc(F)cc1[C@H]1C[C@H](F)CN1c1ccc2ncc(C(=O)NC3CCN(Cc4cccc(O)c4)CC3)n2n1 [Example 3, 6-[(2R,4S)-4-fluoro-2-[5-fluoro-2-(methylsulfanyl)phenyl]pyrrolidin-1-yl]-N-{1-[(3-hydroxyphenyl)methyl]piperidin-4-yl}imidazo[1,2-b]pyridazine-3-carboxamide]	0.92	0.79	1.19
CSc1cc(F)cc([C@H]2C[C@H](F)CN2c2ccc3ncc(C(=O)N[C@H]4CCN(Cc5ccc(F)c(O)c5)C4)n3n2)c1 [Example 18, 6-[(2R,4S)-4-fluoro-2-[3-fluoro-5-(methylsulfanyl)phenyl]pyrrolidin-1-yl]-N-[(3S)-1-[(4-fluoro-3-hydroxyphenyl)methyl]pyrrolidin-3-yl]imidazo[1,2-b]pyridazine-3-carboxamide]	2.87	7.82	5.19
CSc1ccc(F)cc1[C@H]1C[C@H](F)CN1c1ccc2ncc(C(=O)NC3CN(Cc4ccc(F)c(O)c4)C3)n2n1 [Example 4, 6-[(2R,4S)-4-fluoro-2-[5-fluoro-2-(methylsulfanyl)phenyl]pyrrolidin-1-yl]-N-{1-[(4-fluoro-3-hydroxyphenyl)methyl]azetidin-3-yl}imidazo[1,2-b]pyridazine-3-carboxamide]	1.75	1.05	1.93
CSc1cc(F)cc([C@H]2C[C@H](F)CN2c2ccc3ncc(C(=O)NCc4ccc(F)c(O)c4)n3n2)c1 [Example 26, 6-[(2R,4S)-4-fluoro-2-[3-fluoro-5-(methylsulfanyl)phenyl]pyrrolidin-1-yl]-N-[(4-fluoro-3-hydroxyphenyl)methyl]imidazo[1,2-b]pyridazine-3-carboxamide]	1.87	1.85	2.97
CSc1cc(F)cc([C@H]2C[C@H](F)CN2c2ccc3ncc(C(=O)N[C@H]4CCN(C(=O)c5cccc(O)c5)C4)n3n2)c1 [Example 27, 6-[(2R,4S)-4-fluoro-2-[3-fluoro-5-(methylsulfanyl)phenyl]pyrrolidin-1-yl]-N-[(3S)-1-(3-hydroxybenzoyl)pyrrolidin-3-yl]imidazo[1,2-b]pyridazine-3-carboxamide]	1.34	1.01	1.87
CCOC(=O)c1cccc(CN2CC[C@H](NC(=O)c3cnc4ccc(N5C[C@@H](F)C[C@@H]5c5cc(F)ccc5SC)nn34)C2)c1 [Example 13, Ethyl 3-{[(3S)-3-{6-[(2R,4S)-4-fluoro-2-[5-fluoro-2-(methylsulfanyl)phenyl]pyrrolidin-1-yl]imidazo[1,2-b]pyridazine-3-amido}pyrrolidin-1-yl]methyl}benzoate]	1.7	2.53	2.01
CSc1cc(F)cc([C@H]2C[C@H](F)CN2c2ccc3ncc(C(=O)N[C@H]4COCCN(Cc5ccc(F)c(O)c5)C4)n3n2)c1 (single isomer, unassigned) [Example 25]	6.1	11.4	8.72
CO[C@H]1CN(Cc2ccc(F)c(O)c2)C[C@@H]1NC(=O)c1cnc2ccc(N3C[C@@H](F)C[C@@H]3c3cc(F)cc(SC)c3)nn12 [Example 23, 6-[(2R,4S)-4-fluoro-2-[3-fluoro-5-(methylsulfanyl)phenyl]pyrrolidin-1-yl]-N-[(3S,4S)-1-[(4-fluoro-3-hydroxyphenyl)methyl]-4-methoxypyrrolidin-3-yl]imidazo[1,2-b]pyridazine-3-carboxamide]	2.37	10.3	6.85
CSc1ccc(F)cc1[C@H]1C[C@H](F)CN1c1ccc2ncc(C(=O)N[C@H]3CCN(Cc4ccc(F)c(O)c4)C3)n2n1 [Example 11, 6-[(2R,4S)-4-fluoro-2-[5-fluoro-2-(methylsulfanyl)phenyl]pyrrolidin-1-yl]-N-[(3S)-1-[(4-fluoro-3-hydroxyphenyl)methyl]pyrrolidin-3-yl]imidazo[1,2-b]pyridazine-3-carboxamide]	1.57	2.27	2.46
CSc1cc(F)cc([C@H]2C[C@H](F)CN2c2ccc3ncc(C(=O)N[C@H]4CCN(Cc5cccc(C(=O)O)c5)C4)n3n2)c1 [Example 29, 3-{[(3S)-3-{6-[(2R,4S)-4-fluoro-2-[3-fluoro-5-(methylsulfanyl)phenyl]pyrrolidin-1-yl]imidazo[1,2-b]pyridazine-3-amido}pyrrolidin-1-yl]methyl}benzoic Acid]	5.84	5.34	3.98
CCCCOC(=O)c1cccc(CN2CC[C@H](NC(=O)c3cnc4ccc(N5C[C@@H](F)C[C@@H]5c5cc(F)cc(SC)c5)nn34)C2)c1 [Example 30, Butyl 3-{[(3S)-3-{6-[(2R,4S)-4-fluoro-2-[3-fluoro-5-(methylsulfanyl)phenyl]pyrrolidin-1-yl]imidazo[1,2-b]pyridazine-3-amido}pyrrolidin-1-yl]methyl}benzoate]	22.4	14.9	22.4
CSc1cc(F)cc([C@H]2C[C@H](F)CN2c2ccc3ncc(C(=O)N[C@@H]4COCCN(Cc5ccc(F)c(O)c5)C4)n3n2)c1 (single isomer, unassigned) [Example 24]	6.9	23.6	17.3
CSc1ccc(F)cc1[C@H]1C[C@H](F)CN1c1ccc2ncc(C(=O)NCc3cccc(O)c3)n2n1 [Example 7, 6-[(2R,4S)-4-fluoro-2-[5-fluoro-2-(methylsulfanyl)phenyl]pyrrolidin-1-yl]-N-[(3-hydroxyphenyl)methyl]imidazo[1,2-b]pyridazine-3-carboxamide]	0.9	0.49	1.25
COC(=O)c1cccc(CN2CC[C@H](NC(=O)c3cnc4ccc(N5C[C@@H](F)C[C@@H]5c5cc(F)ccc5SC)nn34)C2)c1 [Example 10, Methyl 3-{[(3S)-3-{6-[(2R,4S)-4-fluoro-2-[5-fluoro-2-(methylsulfanyl)phenyl]pyrrolidin-1-yl]imidazo[1,2-b]pyridazine-3-amido}pyrrolidin-1-yl]methyl}benzoate]	1.18	2.15	2.12
